What follows are compounds tested against T1, human RXFP1 (Homo sapiens, UniProt Q9HBX9) (assay: human RXFP1 (hRXFP1) HEK293 cAMP assay (HTRF)). Conditions: HEK293 cells stably expressing human RXFP1, 30 min at room temperature.
T1 construct: expressed in transfected cells
T1 sequence (Q9HBX9 1-757): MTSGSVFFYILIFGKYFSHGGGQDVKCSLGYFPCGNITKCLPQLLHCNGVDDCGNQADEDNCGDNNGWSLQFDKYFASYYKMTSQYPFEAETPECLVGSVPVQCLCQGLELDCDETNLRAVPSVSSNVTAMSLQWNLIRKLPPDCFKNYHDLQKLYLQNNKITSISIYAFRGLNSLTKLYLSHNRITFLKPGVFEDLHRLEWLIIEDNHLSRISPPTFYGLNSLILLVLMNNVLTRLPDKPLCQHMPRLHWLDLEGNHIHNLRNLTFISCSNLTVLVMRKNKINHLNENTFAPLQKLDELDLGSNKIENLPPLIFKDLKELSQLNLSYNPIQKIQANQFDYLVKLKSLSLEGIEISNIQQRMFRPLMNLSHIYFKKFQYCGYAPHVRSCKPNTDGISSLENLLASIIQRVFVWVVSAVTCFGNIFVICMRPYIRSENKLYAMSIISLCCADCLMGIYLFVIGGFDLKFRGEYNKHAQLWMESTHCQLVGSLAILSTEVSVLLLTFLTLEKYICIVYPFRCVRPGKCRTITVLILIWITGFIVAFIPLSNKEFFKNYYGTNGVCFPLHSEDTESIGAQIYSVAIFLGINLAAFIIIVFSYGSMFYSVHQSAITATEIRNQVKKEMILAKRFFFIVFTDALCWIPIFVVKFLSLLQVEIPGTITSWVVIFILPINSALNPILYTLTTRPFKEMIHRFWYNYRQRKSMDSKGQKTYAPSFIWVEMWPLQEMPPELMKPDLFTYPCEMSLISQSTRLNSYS
Assay type: cell-based
How it was run: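 HEK293 cells stably expressing human RXFP1 (1500 cells/well) in HBSS/20 mM HEPES/0.05% BSA/0.5 mM IBMX, treated with compound (0.010 nM–50 µM final, 2% DMSO) for 30 min at room temperature. Intracellular cAMP read by HTRF; potency from 4-parameter logistic fit of cAMP versus concentration.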

Row | SMILES | EC50 [nM]
1 | COc1ncc(-c2cc([C@H](OC(=O)NC3CC3)C(F)(F)F)ccc2F)cc1C(=O)N[C@H]1[C@@H](C(=O)Nc2ccc(F)c(C(F)(F)F)c2)[C@H]2CC[C@@H]1/C2=C\C(C)C [Example 166, (1S)-2,2,2-trifluoro-1-[4-fluoro-3-(5-{[(1R,2R,3S,4R, 7Z)-3-{[4-fluoro-3-(trifluoromethyl)phenyl]carbamoyl}-7-(2-methylpropylidene)bicyclo[2.2.1]heptan-2-yl]carbamoyl}-6-methoxypyridin-3-yl)phenyl]ethyl N-cyclopropyl-carbamate] | 2.5
2 | COc1ncc(C(=O)N2CC(S(C)(=O)=O)C2)cc1C(=O)N[C@H]1[C@@H](C(=O)N[C@H](C)C2(C)CC2)[C@H]2CC[C@@H]1/C2=C\C1CC1 [Example 151, N-[(1R,2R,4R,7Z)-7-(cyclopropyl-methylidene)-3-{[(1R)-1-(1-methylcyclopropyl)ethyl]carbamoyl}bicyclo[2.2.1]heptan-2-yl]-5-(3-methanesulfonylazetidine-1-carbonyl)-2-methoxypyridine-3-carboxamide] | 3.5
3 | COc1ncc(-c2cc(C(=O)O)ccc2F)cc1C(=O)N[C@@H]1C2CCC(C2=C(C)C)[C@@H]1C(=O)Nc1ccc(F)c(C(F)(F)F)c1 (stereo partly drawn) [Example 21, 4-fluoro-3-(5-{[(2R,3S)-3-{[4-fluoro-3-(trifluoromethyl)phenyl]carbamoyl}-7-(propan-2-ylidene)bicyclo[2.2.1]heptan-2-yl]carbamoyl}-6-methoxypyridin-3-yl)benzoic acid] | 80
4 | COc1ncc(Br)cc1C(=O)N[C@@H]1C2CCC(C2=C(C)C)[C@@H]1C(=O)Nc1ccc(F)c(C(F)(F)F)c1 (stereo partly drawn) [Example 1, 5-bromo-N-[(2R,3S)-3-{[4-fluoro-3-(trifluoromethyl)phenyl]carbamoyl}-7-(propan-2-ylidene)bicyclo[2.2.1]heptan-2-yl]-2-methoxypyridine-3-carboxamide] | 710
5 | CC1(C)Cc2cc(C3=NOC4CC(CO)CC34)cc(C(=O)N[C@@H]3C4CCC(/C4=C/C4CC4)[C@@H]3C(=O)Nc3ccc(F)c(C(F)(F)F)c3)c2O1 (some centres unmarked) [Example 144] | 2
6 | O=C(O)c1ccc(F)c(-c2cc(C(=O)N[C@@H]3C4CCC(/C4=C/C(F)(F)F)[C@@H]3C(=O)Nc3ccc(F)c(C(F)(F)F)c3)c(OCCO)cn2)c1 (stereo partly drawn) [Example 44, 4-Fluoro-3-(4-{[(2R,3S,7Z)-3-{[4-fluoro-3-(trifluoromethyl)phenyl]carbamoyl}-7-(2,2,2-trifluoroethylidene)bicyclo[2.2.1]heptan-2-yl]carbamoyl}-5-(2-hydroxyethoxy)pyridin-2-yl)benzoic acid] | 360
7 | COc1ncc(C2=NOC3CC(C(O)C(F)(F)F)CC23)cc1C(=O)N[C@H]1[C@@H](C(=O)N[C@H](C)C2(C)CC2)[C@H]2CC[C@@H]1/C2=C\C1CC(F)(F)C1 (stereo partly drawn) [Example 170, N-[(1R,2R,3S,4R, 7Z)-7-[(3,3-difluorocyclobutyl)methylidene]-3-{[(1R)-1-(1-methylcyclo-propyl)ethyl]carbamoyl}bicyclo[2.2.1]heptan-2-yl]-2-methoxy-5-[5-(2,2,2-trifluoro-1-hydroxyethyl)-3aH,4H,5H,6H, 6aH-cyclopenta[d] [1,2]oxazol-3-yl]pyridine-3-carboxamide] | 3.3
8 | CCCc1cnc(OC)c(C(=O)N[C@@H]2C3CCC(/C3=C/C(F)(F)F)[C@@H]2C(=O)Nc2ccc(F)c(C(F)(F)F)c2)c1 (stereo partly drawn) [Example 51, N-[(2R,3S,7Z)-3-{[4-fluoro-3-(trifluoromethyl)phenyl]carbamoyl}-7-(2,2,2-trifluoroethylidene)bicyclo[2.2.1]heptan-2-yl]-2-methoxy-5-propylpyridine-3-carboxamide] | 1300
9 | COc1ncc(C(=O)N2CC(O)C2)cc1C(=O)N[C@H]1[C@@H](C(=O)Nc2ccc(F)c(C(F)(F)F)c2)[C@H]2CC[C@@H]1/C2=C\C1CC1 [Example 75, N-[(1R,2R,3S, 4R,7Z)-7-(cyclopropyl-methylidene)-3-{[4-fluoro-3-(trifluoromethyl)phenyl]carbamoyl}bicyclo[2.2.1]heptan-2-yl]-5-(3-hydroxyazetidine-1-carbonyl)-2-methoxypyridine-3-carboxamide] | 8.1
10 | COc1ncc(-c2cc([C@H](OC(=O)NC3CCC3)C(F)(F)F)ccc2F)cc1C(=O)N[C@H]1[C@@H](C(=O)NC(C)C2(C)CC2)[C@H]2CC[C@@H]1/C2=C\C1CC(F)(F)C1 (stereo partly drawn) [Example 148, (S)-1-(3-(5-(((1R,2R,3S,4R, Z)-7-((3,3-difluorocyclobutyl)methylene)-3-(((R)-1-(1-methylcyclopropyl)ethyl)carbamoyl)bicyclo[2.2.1]heptan-2-yl)carbamoyl)-6-methoxypyridin-3-yl)-4-fluorophenyl)-2,2,2-trifluoroethyl cyclobutylcar-bamate] | 0.5
11 | COc1ncc(-c2cnc3n2CC(O)CC3)cc1C(=O)N[C@H]1[C@@H](C(=O)Nc2ccc(F)c(C(F)(F)F)c2)[C@H]2CC[C@@H]1/C2=C\C1CC1 (stereo partly drawn) [Example 103, N-((1R,2R,3S,4R,Z)-7-(cyclopropyl-methylene)-3-((4-fluoro-3-(trifluoromethyl)phenyl)carbamoyl)bicyclo[2.2.1]heptan-2-yl)-5-(6-hydroxy-5,6,7,8-tetrahydroimidazo [1,2-a]pyridin-3-yl)-2-methoxynicotinamide] | 3.4
12 | COc1ncc(C2=NOC3CC(C(O)C(F)(F)F)CC23)cc1C(=O)N[C@H]1[C@@H](C(=O)Nc2ccc(F)c(C(F)(F)F)c2)[C@H]2CC[C@@H]1/C2=C\C1CCCC1 (stereo partly drawn) [Example 173, N-[(1R,2R,3S,4R, 7Z)-7-(cyclopentyl-methylidene)-3-{[4-fluoro-3-(trifluoromethyl)phenyl]carbamoyl}bicyclo[2.2.1]heptan-2-yl]-2-methoxy-5-[5-(2,2,2-trifluoro-1-hydroxyethyl)-3aH,4H,5H,6H, 6aH-cyclopenta[d][1,2]oxazol-3-yl]pyridine-3-carboxamide] | 0.6
13 | COc1ccncc1C(=O)N[C@@H]1C2CCC(C2=C(C)C)[C@@H]1C(=O)Nc1ccc(F)c(C(F)(F)F)c1 (stereo partly drawn) [Example 2, N-[(2R,3S)-3-{[4-fluoro-3-(trifluoromethyl)phenyl]carbamoyl}-7-(propan-2-ylidene)bicyclo [2.2.1]heptan-2-yl]-4-methoxypyridine-3-carboxamide] | 660
14 | COc1nn(-c2cccc(C(=O)O)c2)cc1C(=O)N[C@@H]1C2CCC(/C2=C/C(F)(F)F)[C@@H]1C(=O)Nc1ccc(F)c(C(F)(F)F)c1 (stereo partly drawn) [Example 53, 3-(4-{[(2R,3S,7Z)-3-{[4-fluoro-3-(trifluoromethyl)phenyl]carbamoyl}-7-(2,2,2-trifluoroethylidene)bicyclo[2.2.1]heptan-2-yl]carbamoyl}-3-methoxy-1H-pyrazol-1-yl)benzoic acid] | 1600
15 | O=C(N[C@@H]1C2CCC(/C2=C/C2CC2)[C@@H]1C(=O)Nc1ccc(F)c(C(F)(F)F)c1)c1cncc(C2=NOC3COCC23)c1 (single isomer, unassigned) [Example 62] | 2400
16 | O=C(NC1CCC1)O[C@@H](c1ccc(F)c(-c2cnc(OCCO)c(C(=O)N[C@@H]3C4CCC(/C4=C/C(F)(F)F)[C@@H]3C(=O)Nc3ccc(F)c(C(F)(F)F)c3)c2)c1)C(F)(F)F (stereo partly drawn) [Example 43, (IS)-2,2,2-trifluoro-1-14-fluoro-3-(5-{[(2R,3S,7Z)-3-{[4-fluoro-3-(trifluoromethyl)phenyl]carbamoyl}-7-(2,2,2-trifluoroethylidene)bicyclo[2. 2.1]heptan-2-yl]carbamoyl}-6-(2-hydroxyethoxy)pyridin-3-yl)phenyl]ethyl N-cyclobutylcarbamate] | 9.4
17 | COc1cc2c(cc1C(=O)N[C@@H]1C3CCC(/C3=C/C3CC3)[C@@H]1C(=O)Nc1ccc(F)c(C(F)(F)F)c1)CN(CCCO)CC2 (stereo partly drawn) [Example 86, N-[(1R,2R,3S,4R)-7-(cyclopropyl-methylidene)-3-{[4-fluoro-3-(trifluoromethyl)phenyl]carbamoyl}bicyclo[2.2.1]heptan-2-yl]-2-(3-hydroxypropyl)-6-methoxy-1,2,3,4-tetrahydroiso-quinoline-7-carboxamide] | 240
18 | COc1cc2c(cc1C(=O)N[C@@H]1C3CCC(/C3=C/C3CC3)[C@@H]1C(=O)Nc1ccc(F)c(C(F)(F)F)c1)CCN(CCS(C)(=O)=O)C2 (some centres unmarked) [Example 92] | 4800
19 | O=C(N[C@@H]1C2CCC(/C2=C/C(F)(F)F)[C@@H]1C(=O)Nc1ccc(F)c(C(F)(F)F)c1)c1cnn2c(C(F)F)cc(Cl)cc12 (some centres unmarked) [Example 13] | 1700
20 | COc1ncc(C2=NOC3COCC23)cc1C(=O)N[C@H]1[C@@H](C(=O)Nc2ccc(F)c(C(F)(F)F)c2)[C@H]2CC[C@@H]1/C2=C\C1CC1 (single isomer, unassigned) [Example 61] | 3.7
